In patent US8993542B2, “Methods of treating viral infections” (priority 2008, dated 2015):
Read-outs that look alike come from different tables or passages of the source.

Assays:
[1] = Cytotoxicity (TC50) in PBMCs; type: cell-based; details: PBMCs
PBMCs = experiment: Cytotoxicity (TC50) in PBMCs; type: cell-based
HIV-1 Subtype Isolates = experiment: Activity against HIV-1 subtype isolates in PBMCs, RT endpoint; details: for IC50: Human immunodeficiency virus 1, PBMC
[2] = system: CEM T-lymphocytic cells or MAGI-CCR5 cells; experiment: Cytotoxicity of two-drug combinations; details: 10 μM highest test concentration
Method: The anti-HIV-1 activity of CMX157 is evaluated in two-drug combination studies with twenty-four different FDA-approved anti-HIV inhibitors. Each two-drug combination is tested three times in CEM T-lymphocytic cells or MAGI-CCR5 cells acutely infected with the laboratory-adapted strain HIV-1IIIB or HIV-1Ba-L, respectively. Viral growth/inhibition is evaluated by measuring virus-induced cytopathic effects (CPE) in CEM cells or by β-galactosidase reporter gene induction in MAGI-CCR5 cells at the experimental endpoint. The cytotoxicity of each two-drug combination is also evaluated in parallel with the antiviral evaluations. The concentrations of CMX157 used in these evaluations are selected in order to test a broad range of concentrations and to provide as complete a dose response curve as possible under the limitations of eight total concentrations. […] The “positive antagonism control” of d4T (stavudine) in combination with RBV was tested in parallel with each of the assays that were performed. Analysis of drug interactions for each of the two-drug combinations is performed using the Prichard and Shipman MacSynergy II three-dimensional model for statistical evaluation of combination assays.

CCCCCCCCCCCCCCCCOCCCOP(=O)(O)CO[C@H](C)Cn1cnc2c(N)ncnc21 [CMX157, Hexadecyloxypropyl-9-R-[2-(Phosphonomethoxy)Propyl]-Adenine]
CC50 ([1]; HIV-2 isolate CDC310319): > 1000 nM
CC50 ([1]; human, isolate ADA, subtype B, read-out: TC 50 (the source's name)): > 1000 nM
CC50 (PBMCs; HIV-2 isolate CBL-20): > 1000 nM
CC50 (PBMCs; HIV-2 isolate CDC310342): > 1000 nM
CC50 (PBMCs; isolate 96USHIPS7, subtype B, read-out: TC 50 (the source's name)): > 1000 nM
CC50 (PBMCs; isolate BCF01, subtype O, read-out: TC 50 (the source's name)): > 1000 nM
CC50 (PBMCs; isolate BCF02, subtype O, read-out: TC 50 (the source's name)): > 1000 nM
CC50 (PBMCs; isolate BCF03, subtype O, read-out: TC 50 (the source's name)): > 1000 nM
CC50 (PBMCs; isolate BR/92/014, subtype B, read-out: TC 50 (the source's name)): > 1000 nM
CC50 (PBMCs; isolate BR/92/025, subtype C, read-out: TC 50 (the source's name)): > 1000 nM
CC50 (PBMCs; isolate BR/93/019, subtype F, read-out: TC 50 (the source's name)): > 1000 nM
CC50 (PBMCs; isolate BR/93/020, subtype F, read-out: TC 50 (the source's name)): > 1000 nM
CC50 (PBMCs; isolate BR/93/029, subtype F, read-out: TC 50 (the source's name)): > 1000 nM
CC50 (PBMCs; isolate CMU06, subtype E, read-out: TC 50 (the source's name)): > 1000 nM
CC50 (PBMCs; isolate CMU08, subtype E, read-out: TC 50 (the source's name)): > 1000 nM
CC50 (PBMCs; isolate G3, subtype G, read-out: TC 50 (the source's name)): > 1000 nM
CC50 (PBMCs; isolate IN/93/101, subtype C, read-out: TC 50 (the source's name)): > 1000 nM
CC50 (PBMCs; isolate JR-CSF, subtype B, read-out: TC 50 (the source's name)): > 1000 nM
CC50 (PBMCs; isolate JV1083, subtype G, read-out: TC 50 (the source's name)): > 1000 nM
CC50 (PBMCs; isolate MW/93/959, subtype C, read-out: TC 50 (the source's name)): > 1000 nM
CC50 (PBMCs; isolate RU132, subtype G, read-out: TC 50 (the source's name)): > 1000 nM
CC50 (PBMCs; isolate RW/92/009, subtype A, read-out: TC 50 (the source's name)): > 1000 nM
CC50 (PBMCs; isolate TH/92/026, subtype B, read-out: TC 50 (the source's name)): > 1000 nM
CC50 (PBMCs; isolate TH/93/073, subtype E, read-out: TC 50 (the source's name)): > 1000 nM
CC50 (PBMCs; isolate UG/92/001, subtype D, read-out: TC 50 (the source's name)): > 1000 nM
CC50 (PBMCs; isolate UG/92/024, subtype D, read-out: TC 50 (the source's name)): > 1000 nM
CC50 (PBMCs; isolate UG/92/029, subtype A, read-out: TC 50 (the source's name)): > 1000 nM
CC50 (PBMCs; isolate UG/92/037, subtype A, read-out: TC 50 (the source's name)): > 1000 nM
CC50 (PBMCs; isolate UG/92/046, subtype D, read-out: TC 50 (the source's name)): > 1000 nM
IC50 (HIV-1 Subtype Isolates; read-out: IC50s against all major HIV subtypes, subtypes A-G, O and HIV-2, Tables 2 and 3): 0.2 to 7.2 nM
IC50 (HIV-1 Subtype Isolates; read-out: RT Endpoint IC50, isolate 96USHIPS7, subtype B): 4.8 nM
IC50 (HIV-1 Subtype Isolates; read-out: RT Endpoint IC50, isolate ADA, subtype B): 1.08 nM
IC50 (HIV-1 Subtype Isolates; read-out: RT Endpoint IC50, isolate BCF01, subtype O): 7.18 nM
IC50 (HIV-1 Subtype Isolates; read-out: RT Endpoint IC50, isolate BCF02, subtype O): 2.47 nM
IC50 (HIV-1 Subtype Isolates; read-out: RT Endpoint IC50, isolate BCF03, subtype O): 5.29 nM
IC50 (HIV-1 Subtype Isolates; read-out: RT Endpoint IC50, isolate BR/92/014, subtype B): 1.58 nM
IC50 (HIV-1 Subtype Isolates; read-out: RT Endpoint IC50, isolate BR/92/025, subtype C): 3.43 nM
IC50 (HIV-1 Subtype Isolates; read-out: RT Endpoint IC50, isolate BR/93/019, subtype F): 6.4 nM
IC50 (HIV-1 Subtype Isolates; read-out: RT Endpoint IC50, isolate BR/93/020, subtype F): 0.73 nM
IC50 (HIV-1 Subtype Isolates; read-out: RT Endpoint IC50, isolate BR/93/029, subtype F): 1.03 nM
IC50 (HIV-1 Subtype Isolates; read-out: RT Endpoint IC50, isolate CMU06, subtype E): 1.03 nM
IC50 (HIV-1 Subtype Isolates; read-out: RT Endpoint IC50, isolate CMU08, subtype E): 2.81 nM
IC50 (HIV-1 Subtype Isolates; read-out: RT Endpoint IC50, isolate G3, subtype G): 2.68 nM
IC50 (HIV-1 Subtype Isolates; read-out: RT Endpoint IC50, isolate IN/93/101, subtype C): 0.53 nM
IC50 (HIV-1 Subtype Isolates; read-out: RT Endpoint IC50, isolate JR-CSF, subtype B): 0.68 nM
IC50 (HIV-1 Subtype Isolates; read-out: RT Endpoint IC50, isolate JV1083, subtype G): 2.32 nM
IC50 (HIV-1 Subtype Isolates; read-out: RT Endpoint IC50, isolate MW/93/959, subtype C): 4.5 nM
IC50 (HIV-1 Subtype Isolates; read-out: RT Endpoint IC50, isolate RU132, subtype G): 1.63 nM
IC50 (HIV-1 Subtype Isolates; read-out: RT Endpoint IC50, isolate RW/92/009, subtype A): 1.75 nM
IC50 (HIV-1 Subtype Isolates; read-out: RT Endpoint IC50, isolate TH/92/026, subtype B): 0.44 nM
IC50 (HIV-1 Subtype Isolates; read-out: RT Endpoint IC50, isolate TH/93/073, subtype E): 2.95 nM
IC50 (HIV-1 Subtype Isolates; read-out: RT Endpoint IC50, isolate UG/92/001, subtype D): 5.16 nM
IC50 (HIV-1 Subtype Isolates; read-out: RT Endpoint IC50, isolate UG/92/024, subtype D): 0.3 nM
IC50 (HIV-1 Subtype Isolates; read-out: RT Endpoint IC50, isolate UG/92/029, subtype A): 5.84 nM
IC50 (HIV-1 Subtype Isolates; read-out: RT Endpoint IC50, isolate UG/92/037, subtype A): 2.3 nM
IC50 (HIV-1 Subtype Isolates; read-out: RT Endpoint IC50, isolate UG/92/046, subtype D): 0.96 nM
TI (TC50/IC50) (HIV-1 Subtype Isolates; isolate 96USHIPS7, subtype B): >208
TI (TC50/IC50) (HIV-1 Subtype Isolates; isolate ADA, subtype B): >925
TI (TC50/IC50) (HIV-1 Subtype Isolates; isolate BCF01, subtype O): >139
TI (TC50/IC50) (HIV-1 Subtype Isolates; isolate BCF02, subtype O): >405
TI (TC50/IC50) (HIV-1 Subtype Isolates; isolate BCF03, subtype O): >189
TI (TC50/IC50) (HIV-1 Subtype Isolates; isolate BR/92/014, subtype B): >633
TI (TC50/IC50) (HIV-1 Subtype Isolates; isolate BR/92/025, subtype C): >291
TI (TC50/IC50) (HIV-1 Subtype Isolates; isolate BR/93/019, subtype F): >156
TI (TC50/IC50) (HIV-1 Subtype Isolates; isolate BR/93/020, subtype F): >1,362
TI (TC50/IC50) (HIV-1 Subtype Isolates; isolate BR/93/029, subtype F): >972
TI (TC50/IC50) (HIV-1 Subtype Isolates; isolate CMU06, subtype E): >970
TI (TC50/IC50) (HIV-1 Subtype Isolates; isolate CMU08, subtype E): >356
TI (TC50/IC50) (HIV-1 Subtype Isolates; isolate G3, subtype G): >373
TI (TC50/IC50) (HIV-1 Subtype Isolates; isolate IN/93/101, subtype C): >1,892
TI (TC50/IC50) (HIV-1 Subtype Isolates; isolate JR-CSF, subtype B): >1,480
TI (TC50/IC50) (HIV-1 Subtype Isolates; isolate JV1083, subtype G): >431
TI (TC50/IC50) (HIV-1 Subtype Isolates; isolate MW/93/959, subtype C): >222
TI (TC50/IC50) (HIV-1 Subtype Isolates; isolate RU132, subtype G): >615
TI (TC50/IC50) (HIV-1 Subtype Isolates; isolate RW/92/009, subtype A): >571
TI (TC50/IC50) (HIV-1 Subtype Isolates; isolate TH/92/026, subtype B): >2,278
TI (TC50/IC50) (HIV-1 Subtype Isolates; isolate TH/93/073, subtype E): >339
TI (TC50/IC50) (HIV-1 Subtype Isolates; isolate UG/92/001, subtype D): >194
TI (TC50/IC50) (HIV-1 Subtype Isolates; isolate UG/92/024, subtype D): >3,346
TI (TC50/IC50) (HIV-1 Subtype Isolates; isolate UG/92/029, subtype A): >171
TI (TC50/IC50) (HIV-1 Subtype Isolates; isolate UG/92/037, subtype A): >435
TI (TC50/IC50) (HIV-1 Subtype Isolates; isolate UG/92/046, subtype D): >1,039
synergistic cytotoxicity [2]: no evidence of synergistic cytotoxicity
